Laboratory results from ChEMBL document CHEMBL2057068, “Quinolylhydrazones as novel inhibitors of Plasmodium falciparum serine protease PfSUB1” (Bioorg Med Chem Lett, 2012).

Tests used:
[1] = molecular target: T1, Subtilisin-like protease 1 (Plasmodium falciparum) (UniProt O61142); assay: Inhibition of Plasmodium falciparum SUB1 assessed as residual hydrolytic activity at 50 uM by fluorimetric assay
T1 sequence (whole entry): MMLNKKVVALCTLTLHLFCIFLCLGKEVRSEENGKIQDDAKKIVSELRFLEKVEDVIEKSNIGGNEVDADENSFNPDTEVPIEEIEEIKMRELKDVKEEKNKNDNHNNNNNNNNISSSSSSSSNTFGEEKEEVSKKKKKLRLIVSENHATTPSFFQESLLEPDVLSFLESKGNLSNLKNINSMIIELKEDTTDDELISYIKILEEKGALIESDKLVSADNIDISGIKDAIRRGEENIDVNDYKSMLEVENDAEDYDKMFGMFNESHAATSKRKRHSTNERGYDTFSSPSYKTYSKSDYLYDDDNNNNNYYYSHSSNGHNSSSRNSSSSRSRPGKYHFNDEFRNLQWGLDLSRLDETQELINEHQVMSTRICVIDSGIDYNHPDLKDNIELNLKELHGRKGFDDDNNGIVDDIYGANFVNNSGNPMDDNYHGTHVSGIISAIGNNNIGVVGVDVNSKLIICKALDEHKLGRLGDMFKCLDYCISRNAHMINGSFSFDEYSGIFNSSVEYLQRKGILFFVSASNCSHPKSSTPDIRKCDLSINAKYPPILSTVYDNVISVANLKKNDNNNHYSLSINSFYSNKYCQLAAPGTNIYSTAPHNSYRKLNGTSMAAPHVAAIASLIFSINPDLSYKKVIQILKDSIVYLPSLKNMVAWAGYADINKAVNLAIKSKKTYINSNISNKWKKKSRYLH

[2] = molecular target: T2, Subtilisin-like protease 1 (Plasmodium falciparum, UniProt O61142); assay: Inhibition of Plasmodium falciparum SUB1 by fluorimetric assay
T2 sequence (O61142 whole entry): T1 sequence (whole entry)

| SMILES | Activity [1] [%] | IC50 [2] [µM] |
| --- | --- | --- |
| Cc1cc(N/N=C/c2cccc([N+](=O)[O-])c2)c2cc3c(cc2n1)OCO3 | 97.2 | – |
| N#Cc1ccc(/C=N/Nc2ccnc3ccccc23)cc1 | 74.3 | – |
| O=[N+]([O-])c1ccc(/C=N/Nc2ccnc3ccccc23)cc1 | 80.6 | – |
| Cc1cc(N/N=C/c2ccc([S+](C)[O-])cc2)c2cc3c(cc2n1)OCO3 (configuration not stated) | 92.4 | – |
| CC(=O)Nc1ccc(/C=N/Nc2cc(C)nc3cc4c(cc23)OCO4)cc1 | 70.9 | – |
| N#Cc1ccc(/C=N/Nc2c3c(nc4ccccc24)CCCC3)cc1 | 81.5 | – |
| Cc1cc(N/N=C/c2ccc(C#N)cc2)c2cc3c(cc2n1)OCO3 | 29.2 | 40 |
| Cc1cc(N/N=C/c2ccc(C(F)(F)F)cc2C(F)(F)F)c2cc3c(cc2n1)OCO3 | 62.1 | – |
| Cc1cc(NNC(=O)c2ccc(S(C)(=O)=O)cc2)c2cc3c(cc2n1)OCO3 | 68.7 | – |
| Cc1cc(N/N=C/c2ccc(F)cc2)c2cc3c(cc2n1)OCO3 | 97 | – |
| COc1ccc2nc(C)cc(N/N=C/c3ccc([N+](=O)[O-])cc3)c2c1 | 12.3 | 20 |
| O=[N+]([O-])c1ccc(/C=N/Nc2c3c(nc4ccccc24)CCCC3)cc1 | 55.8 | > 50 |
| Cc1cc(N/N=C/c2ccc(C=O)cc2)c2cc3c(cc2n1)OCO3 | 86.5 | – |
| Cc1cc(N/N=C/c2ccc([N+](=O)[O-])cc2)c2cc3c(cc2n1)OCO3 | 27.2 | 20 |
| CSc1ccc(/C=N/Nc2cc(C)nc3cc4c(cc23)OCO4)cc1 | 77.5 | – |
| O=[N+]([O-])c1ccc(C=NNc2nc3ccccc3[nH]2)cc1 | 43.1 | > 50 |
| Cc1cc(NNC(=O)c2ccc(C#N)cc2)c2cc3c(cc2n1)OCO3 | 85.5 | – |
| Cc1cc(N/N=C/c2ccc(NS(C)(=O)=O)cc2)c2cc3c(cc2n1)OCO3 | 72.2 | – |

| SMILES | Activity [1] [%] | IC50 [2] [µM] |
| --- | --- | --- |
| CCOC(OCC)c1ccc(/C=N/Nc2cc(C)nc3cc4c(cc23)OCO4)cc1 | 75.6 | – |
| Cc1cc(N/N=C/c2ccc(C#N)cc2)c2ccccc2n1 | 85 | – |
| O=[N+]([O-])c1ccc(/C=N/Nc2ccncc2)cc1 | 84.6 | – |
| Cc1cc(N/N=C/c2ccc(C(F)(F)F)cc2)c2cc3c(cc2n1)OCO3 | 86.1 | – |
| Cc1cc(/N=C/c2ccc([N+](=O)[O-])cc2)c2cc3c(cc2n1)OCO3 | 72.2 | – |
| Cc1cc(N/N=C/c2ccccc2C(F)(F)F)c2cc3c(cc2n1)OCO3 | 100 | – |
| Cc1cc(N/N=C/c2ccc(C(=O)O)cc2)c2cc3c(cc2n1)OCO3 | 75.5 | – |
| Cc1cc(N/N=C/c2ccc(/C(N)=N/O)cc2)c2cc3c(cc2n1)OCO3 | 73.9 | – |
| Cc1cc(N/N=C/c2ccccc2[N+](=O)[O-])c2cc3c(cc2n1)OCO3 | 38.6 | 40 |
| Cc1cc(N/N=C/c2ccc(Cl)cc2)c2cc3c(cc2n1)OCO3 | 77.9 | – |
| O=C(NNc1nc2ccccc2[nH]1)c1ccc([N+](=O)[O-])cc1 | 46.7 | – |
| Cc1cc(N/N=C/c2ccc(Br)cc2)c2cc3c(cc2n1)OCO3 | 78.2 | – |
| COC(=O)c1ccc(/C=N/Nc2cc(C)nc3cc4c(cc23)OCO4)cc1 | 85 | – |
| COc1ccc2nccc(N/N=C/c3ccc([N+](=O)[O-])cc3)c2c1 | 32.4 | 50 |
| Cc1cc(NNC(=O)c2ccc([N+](=O)[O-])cc2)c2cc3c(cc2n1)OCO3 | 64.4 | – |
| Cc1cc(N/N=C/c2ccc(S(C)(=O)=O)cc2)c2cc3c(cc2n1)OCO3 | 76.4 | – |
| C/C(=N\Nc1cc(C)nc2cc3c(cc12)OCO3)c1ccc([N+](=O)[O-])cc1 | 60.3 | – |
